Measured values published in PMC10212518 (Biochemical Journal, 2023).
pKd: −log10 of the molar value.

Tests used:
[1] = test system: TNF-induced sterile sepsis; parameters: method as in earlier work; settings: mice; ref 56 (Yu et al.); cited from earlier work
[2] = test system: RIPK1 phosphorylation in MDF cells; assay: Cellular phosphorylation assay, Western blot of phospho-RIPK1; format: cell-based, mouse; settings: 10 µM, 2 h pre-treatment; TSI 2 h; wild-type MDF cells
Protocol: WT, Ripk1^−/−Mlkl^−/− and Ripk3^−/− MDF cell lines were seeded at 3.0 × 10^5 cells in 1 ml per well in 12-well plates (Corning, cat #3512) and allowed to settle for 24 h at 37°C 10% CO2. WT cells were treated with DMSO alone or compounds (1 µM or 10 µM), as specified, for 2 h. Ripk1^−/−Mlkl^−/− and Ripk3^−/− cells were left untreated. Cells were stimulated with TSI to induce phosphorylation of RIPK1 and RIPK3, or left unstimulated, for 2 h. For all compounds and reagents, 1 µl of 1000× stocks were used. Cells were harvested, washed with 500 µl DPBS (Gibco) and lysed in 25 µl of ice-cold RIPA buffer (25 mM Tris–HCl pH 7.5, 150 mM NaCl, 1% v/v Nonidet P-40, 1% w/v Na Deoxycholate, 0.1% w/v SDS) containing cOmplete EDTA-free Protease Inhibitor Cocktail (Roche), PhosSTOP Phosphatase Inhibitor Cocktail (Roche) and benzonase nuclease (Sigma–Aldrich) for 30 min on ice. Whole cell lysates were stored at −80°C until protein quantification, SDS–PAGE and Western blots were performed. Briefly, whole cell lysates were thawed on ice then quantified using the BCA Protein Assay with bicinchoninic acid solution (Sigma–Aldrich) and copper sulfate solution (Sigma–Aldrich). NuPAGE LDS Sample Buffer (Invitrogen) containing TCEP (Sigma–Aldrich) was added to the whole cell lysates to obtain 20 µg protein in 20 µl total volume per sample. Samples were heated at 95°C for 10 minutes and 20 µl of each sample was run on NuPAGE 4–12% Bis-Tris 1.0 mm × 12-well Mini Gels (Invitrogen) using NuPAGE MES SDS Running Buffer (Invitrogen) along with the Precision Plus Kaleidoscope Prestained Protein Standard (Bio-Rad). Western blots were performed according to the Western Blotting General Procedure above.

[3] = test system: MDF cells expressing the MLKL Q343A mutant; assay: Phenotypic screen: MLKL Q343A-induced cell death, CellTiter-Glo cell viability; format: cell-based, mouse; settings: 1 µM; wild-type or Mlkl−/− MDF cells; doxycycline 1 µg/ml
Protocol: The phenotypic screen was performed as previously described. Briefly, 5632 compounds from an in-house (WEHI) small molecule library and 40 well-characterised kinase inhibitors were screened against MDF cells expressing the MLKL Q343A mutant. For the 5632 compounds from the WEHI library, 384-well white clear-bottom plates (Corning) containing the compounds (10 µM) were prepared at Compounds Australia. WT MDF cells expressing MLKL Q343A were seeded at 2.0 × 10^3 cells per well into the plates using the Nanodrop Nano-Dispensing Liquid Handler (Gilson) and incubated with the compounds for 2 h, prior to the addition of doxycycline (1 µg/ml) to induce expression of the MLKL Q343A protein. After 24 h, cell viability was determined using the CellTiter-Glo Assay (Promega) by measuring luminescence using an EnVision plate reader (PerkinElmer). For the 40 kinase inhibitors, WT and Mlkl^−/− MDF cells expressing MLKL Q343A were seeded at 5.0 × 10^3 cells per well in 96-well plates and allowed to settle for ∼6 h at 37°C 10% CO2. […] After 18 h, cell viability was determined using the CellTiter-Glo Assay (Promega) by measuring luminescence using an EnVision plate reader (PerkinElmer). Raw luminescence data were normalised to the uninduced (no doxycycline) controls (100% cell viability) using GraphPad Prism.

[4] = target: T1, human RIPK3 kinase domain (Homo sapiens, UniProt Q9Y572); assay: DiscoverX KINOMEscan competition binding assay (KdELECT); settings: tested up to 30 µM
T1 construct: human MLKL (full-length), RIPK1 (kinase domain) and RIPK3 (kinase domain); purchased DiscoverX KINOMEscan (KdELECT service)
T1 sequence (Q9Y572 21-287 limits assumed): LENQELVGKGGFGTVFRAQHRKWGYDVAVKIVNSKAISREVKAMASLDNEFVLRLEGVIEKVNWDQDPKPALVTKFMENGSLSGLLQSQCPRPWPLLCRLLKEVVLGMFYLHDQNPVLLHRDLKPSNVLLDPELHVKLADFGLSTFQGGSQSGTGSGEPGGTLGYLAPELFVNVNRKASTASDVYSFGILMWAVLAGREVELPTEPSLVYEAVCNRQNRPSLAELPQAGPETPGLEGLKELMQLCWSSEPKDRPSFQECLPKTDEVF

SMILES	protection from TNF-induced sterile sepsis [1]	effect on RIPK1 phosphorylation (phospho-RIPK1 signal, Western blot) [2]	inhibition of necroptosis induced by expression of MLKL Q343A (cell viability, CellTiter-Glo) [3]	pKd [4]
Cc1ccc(F)c(NC(=O)Nc2ccc(-c3cccc4[nH]nc(N)c34)cc2)c1 [ABT-869, N-(4-(3-amino-1H-indazol-4-yl)phenyl)-N'-(2-fluoro-5-methylphenyl)urea]	confer protection in mice from TNF-induced sterile sepsis	almost completely ablated RIPK1 phosphorylation	attenuated necroptosis	
Nc1n[nH]c2cccc(-c3ccc(NC(=O)Nc4ccccc4)cc3)c12 [WEHI-615]		only partially reduced the phospho-RIPK1 signal		< 4.52
